From patent US20090246145A1, “Imaging Correlates of Neurogenesis With MRI” (priority 2005, published 2009)
Where two headings read alike, the source gives them in different places.

Tests used:
[1] = in vivo
From the text: Three scout scans are first acquired to position the subsequent T2 weighted images along the standard anatomical orientations in a reproducible manner. T2 weighted axial images are acquired with multislice fast spin echo (FSE) sequence using TR/TEeff=[…]/80 ms, rapid acquisition with relaxation enhancement (RARE) factor=16, FOV=26 mm, acquisition matrix=256×256, slice thickness 0.6 mm, slice gap=0.1 mm and NEX 28. The in-plane resolution is 100 μm. This sequence is repeated 4 times, for a total imaging time of 60 minutes. The first 15 minutes correspond to pre-gadolinium image, after this time period a delay of 1-2 minutes precede the ip gadolinium injection while the mouse is being imaged. The injection lasts 30 seconds. All images are acquired utilizing the same dynamic range, so there is no risk of rescale.
An intravascular contrast agent is required to generate a CBV map of the brain. Different contrast agents have been used for CBV mapping in rodents. Most studies to date have relied on intravenous injections for contrast delivery. Because IV delivery is often problematic in rodents, associated with frequent morbidity and even occasional mortality, it is not ideally suited for longitudinal studies imaging rodents repeatedly over time. […]

[2] = system: adult hippocampal neural progenitor cells; conditions: in vivo; mediated at least in part by NeuroD (Hao 2004; Hsieh 2004); cited from earlier work
[3] = gas anesthesia during MRI, cited from earlier work

CNC(=O)CN(CCN(CCN(CC(=O)[O-])CC(=O)NC)CC(=O)[O-])CC(=O)[O-].[Gd+3] [gadolinium, gadodiamide]
IP dose above which gadolinium has toxic effects (mainly transient unsteady gait, possibly vertigo) [1]: Above 10 mMol

CCCC(CCC)C(=O)O [VPA, 2-propylpentanoic acid]
Induction of adult hippocampal neural progenitor cells to differentiate into neurons [2]: induce adult hippocampal neural progenitor cells to differentiate predominantly into neurons

FC(F)OC(Cl)C(F)(F)F (stereo not shown) [isoflurane]
Cerebral hemodynamic change produced by anesthetic [3]: none or minimal cerebral hemodynamic changes | Cerebral hemodynamic change produced by anesthetic ([3]; listed as Isofluorane): minimal cerebral hemodynamic change
